Measured values: US6372747B1, “Farnesyl protein transferase inhibitors” (Schering Corporation, priority 1998, dated 2002)

Test system: not given
Test: not given
Settings: not given

| Structure (SMILES) | melting point |
| --- | --- |
| CC(C)OC(=O)N1CCN([C@H]2c3ccc(Cl)cc3CCc3cc(Br)cnc32)C[C@@H]1C(=O)NCCC(C)(C)n1ccnc1 [Example 16] | 109 to 111 °C |
| CC(C)(CCNC(=O)[C@H]1CN(C2c3ccc(Cl)cc3CCc3cc(Br)cnc32)CCN1C(=O)NC1CCCCC1)n1ccnc1 (stereo partly shown) [Example 1] | 142 to 144 °C |
| CC(C)(C)NC(=O)N1CCN([C@@H]2c3ccc(Cl)cc3CCc3cc(Br)cnc32)C[C@@H]1C(=O)NCCC(C)(C)n1ccnc1 [Example 11] | 157 to 159 °C |
| CC(C)(CCNC(=O)[C@H]1CN([C@H]2c3ccc(Cl)cc3CCc3cc(Br)cnc32)CCN1C(=O)CC1CCN(C(N)=O)CC1)n1ccnc1 [Example 8] | 123 to 127 °C |
| NC(=O)[C@H](Cc1cnc[nH]1)NC(=O)[C@H]1CN(C2c3ccc(Cl)cc3CCc3cc(Br)cnc32)CCN1C(=O)NC1CCCCC1 (stereo partly shown) [Example 25] | 164 to 169 °C |

Test system: Human tumor cells
Test: Soft Agar Assay (anchorage-independent growth)
Format: cell-based
Settings: Homo sapiens, range stated for the group unless single
Procedure: Anchorage-independent growth is a characteristic of tumorigenic cell lines. Human tumor cells can be suspended in growth medium containing 0.3% agarose and an indicated concentration of a farnesyl transferase inhibitor. The solution can be overlayed onto growth medium solidified with 0.6% agarose containing the same concentration of farnesyl transferase inhibitor as the top layer. After the top layer is solidified, plates can be incubated for 10-16 days at 37° C. under 5% CO2 to allow colony outgrowth. After incubation, the colonies can be stained by overlaying the agar with a solution of MTT (3-[4,5-dimethyl-thiazol-2-yl]-2,5-diphenyltetrazolium bromide, Thiazolyl blue) (1 mg/mL in PBS). Colonies can be counted and the IC50's can be determined.

| Structure (SMILES) | IC50 |
| --- | --- |
| O=C([C@H]1CN([C@H]2c3ccc(Cl)cc3CCc3cccnc32)CCN1C(=O)OC1CCCCC1)N(CCCn1ccnc1)Cc1ccccc1 [Example 186] | 2 to 10 nM |
| O=C([C@H]1CN([C@H]2c3ccc(Cl)cc3CCc3cc(Br)cnc32)CCN1C(=O)OC1CCCCC1)N(CCCn1ccnc1)Cc1ccccc1 [Example 170] | 2 to 10 nM |
| O=C([C@H]1CN([C@H]2c3ccc(Cl)cc3CCc3cccnc32)CCN1C(=O)OC1CCCCC1)N(CCCn1ccnc1CO)Cc1ccccc1 [Example 208] | 2 to 10 nM |
| CC(C)(C)OC(=O)N1CCC(C2c3ccc(Cl)cc3CCc3cc(Br)cnc32)CC1C(=O)N(CCCn1ccnc1)Cc1ccccc1 (stereo not shown) [Example 88] | 2 to 300 nM |
| O=C([C@H]1CN([C@@H]2c3ccc(Cl)cc3CCc3cccnc32)CCN1C(=O)OC1CCCCC1)N(CCCn1ccnc1)Cc1ccccc1 [Example 188] | 2 to 10 nM |
| Cc1cn(CCCN(Cc2ccccc2)C(=O)[C@H]2CN([C@@H]3c4ccc(Cl)cc4CCc4cc(Br)cnc43)CCN2C(=O)OC(C)C)cn1 [Example 196] | 2 to 10 nM |
| Cc1nccn1CCCN(Cc1ccccc1)C(=O)[C@H]1CN(C2c3ccc(Cl)cc3CCc3cc(Br)cnc32)CCN1C(=O)OC1CCCCC1 (single isomer, unassigned) [Example 382] | 2 to 10 nM |
| Cc1cn(CCCN(Cc2ccccc2O)C(=O)[C@H]2CN([C@H]3c4ccc(Cl)cc4CCc4cccnc43)CCN2C(=O)OC2CCCCC2)cn1 (single isomer, unassigned) [Example 316] | 2 to 10 nM |
| CC(C)(C)OC(=O)N1CCN([C@@H]2c3ccc(Cl)cc3CCc3cc(Br)cnc32)C[C@@H]1C(=O)N(CCCn1ccnc1)Cc1cccnc1 [Example 207] | 2 to 10 nM |
| Cc1ncc(CCN(CC2CC2)C(=O)[C@H]2CN([C@H]3c4ccc(Cl)cc4CCc4cccnc43)CCN2C(=O)OC(C)(C)C)n1C [Example 365] | 2 to 10 nM |
| Cc1cncn1CCCN(Cc1ccccc1)C(=O)[C@H]1CN([C@H]2c3ccc(Cl)cc3CCc3cccnc32)CCN1C(=O)OC1CCCCC1 (single isomer, unassigned) [Example 325] | 2 to 10 nM |
| CC(C)OC(=O)N1CCN([C@@H]2c3ccc(Cl)cc3CCc3cccnc32)C[C@@H]1C(=O)N(CCCn1ccnc1)Cc1ccccc1 [Example 187] | 2 to 10 nM |
| Cc1cn(CCCN(Cc2ccccc2)C(=O)[C@H]2CN(C3c4ccccc4CCc4cccnc43)CCN2C(=O)OC2CCCCC2)cn1 (single isomer, unassigned) [Example 372] | 2 to 10 nM |
| CCOC(=O)N1CCC([C@H]2c3ccc(Cl)cc3CCc3cc(Br)cnc32)CC1C(=O)N(CCCn1ccnc1)Cc1ccccc1 (single isomer, unassigned) [80 (Isomer A)] | 2 to 300 nM |
| Cc1cn(CCCN(Cc2ccccc2)C(=O)[C@H]2CN([C@H]3c4ccc(Cl)cc4CCc4cccnc43)CCN2C(=O)OC(C)C)cn1 [Example 200] | 2 to 10 nM |
| O=C(C1CC([C@H]2c3ccc(Cl)cc3CCc3cc(Br)cnc32)CCN1C(=O)NC1CCCCC1)N(CCCn1ccnc1)Cc1ccccc1 (single isomer, unassigned) [Example 79 Step B (Isomer A)] | 2 to 300 nM |
| CC(C)OC(=O)N1CCN([C@H]2c3ccc(Cl)cc3CCc3cc(Br)cnc32)C[C@@H]1C(=O)NCCC(C)(C)n1ccnc1 [Example 16] | 2 to 300 nM |

| Structure (SMILES) | IC50 |
| --- | --- |
| CC(C)OC(=O)N1CCN([C@H]2c3ccc(Cl)cc3CCc3cccnc32)C[C@@H]1C(=O)N(CCCn1ccnc1)Cc1ccc(F)cc1 [Example 204] | 2 to 10 nM |
| Cc1cn(CCCN(Cc2ccccc2)C(=O)[C@@H]2CN([C@H]3c4ccc(Cl)cc4CCc4cccnc43)CCN2C(=O)OC2CCCCC2)cn1 (single isomer, unassigned) [Example 321] | 2 to 10 nM |
| CC(C)(C)OC(=O)N1CCN([C@@H]2c3ccc(Cl)cc3CCc3cc(Br)cnc32)C[C@@H]1C(=O)N(CCCn1ccnc1)Cc1ccccc1 [Example 160] | 2 to 10 nM |
| Cc1cn(CCCN(Cc2ccccc2)C(=O)[C@H]2CN(C3c4ccc(Cl)cc4CCc4cc(Br)cnc43)CCN2C(=O)OC2CCCCC2)c(C)n1 (single isomer, unassigned) [Example 375] | 2 to 10 nM |
| CC(C)(C)NC(=O)N1CCN([C@@H]2c3ccc(Cl)cc3CCc3cc(Br)cnc32)C[C@@H]1C(=O)NCCC(C)(C)n1ccnc1 [Example 11] | 2 to 300 nM |
| CC(C)COC(=O)N1CCN([C@@H]2c3ccc(Cl)cc3CCc3cc(Br)cnc32)C[C@@H]1C(=O)N(CCCn1ccnc1)Cc1ccccc1 [Example 184] | 2 to 10 nM |
| Cc1cn(CCCN(Cc2ccccc2Cl)C(=O)[C@H]2CN([C@H]3c4ccc(Cl)cc4CCc4cccnc43)CCN2C(=O)OC2CCCCC2)cn1 (single isomer, unassigned) [Example 324] | 2 to 10 nM |
| Cc1cn(CCCN(Cc2cccc(Cl)c2)C(=O)[C@H]2CN([C@H]3c4ccc(Cl)cc4CCc4cccnc43)CCN2C(=O)OC2CCCCC2)cn1 [Example 322] | 2 to 10 nM |
| Cc1cn(CC(O)(CNC(=O)[C@H]2CN(C3c4ccc(Cl)cc4CCc4cccnc43)CCN2C(=O)OC2CCCCC2)c2ccccc2)cn1 (stereo partly shown) [Example 339] | 2 to 10 nM |
| Cc1cn(CCCN(Cc2ccccc2)C(=O)[C@H]2CN([C@@H]3c4ccc(Cl)cc4CCc4cc(Br)cnc43)CCN2C(=O)OC2CCCCC2)cn1 [Example 197] | 2 to 10 nM |
| CC(C)(C)OC(=O)N1CCN([C@H]2c3ccc(Cl)cc3CCc3cc(Br)cnc32)C[C@@H]1C(=O)N(CCCn1ccnc1)Cc1cccnc1 [Example 206] | 2 to 10 nM |
| CC(C)(C)OC(=O)N1CCN(C2c3ccc(Cl)cc3CCc3cc(Br)cnc32)C[C@@H]1C(=O)N(CCCn1ccnc1)Cc1ccccn1 (stereo partly shown) [Example 217] | 2 to 10 nM |
| Cc1cn(CCCN(Cc2ccccc2)C(=O)[C@H]2CN([C@@H]3c4ccc(Cl)cc4CCc4cccnc43)CCN2C(=O)OC2CCCCC2)cn1 [Example 198] | 2 to 10 nM |
| Cc1cn(CCCN(Cc2ccccc2)C(=O)[C@H]2CN([C@H]3c4ccc(Cl)cc4CCc4cccnc43)CCN2C(=O)OC2CCCCC2)cn1 [Example 225] | 2 to 10 nM |
| Cn1cncc1CCCN(Cc1ccccc1)C(=O)[C@H]1CN([C@H]2c3ccc(Cl)cc3CCc3cccnc32)CCN1C(=O)OC1CCCCC1 [Example 335] | 2 to 10 nM |
| CC(C)(C)OC(=O)N1CCN(C2c3ccc(Cl)cc3CCc3cc(Br)cnc32)C[C@@H]1C(=O)N(CCCn1ccnc1)Cc1cccnc1 (stereo partly shown) [Example 117] | 2 to 10 nM |
| CC(C)(C)OC(=O)N1CCN(C2c3ccc(Cl)cc3CCc3cc(Br)cnc32)C[C@@H]1C(=O)N(CCCn1ccnc1)Cc1ccncc1 (stereo partly shown) [Example 116] | 2 to 10 nM |

Same assay, conditions: range stated for the group unless single

| Structure (SMILES) | IC50 |
| --- | --- |
| Cc1cn(CCCN(Cc2ccccc2)C(=O)[C@H]2CN([C@H]3c4ccc(Cl)cc4CCc4cccnc43)CCN2C(=O)OC2CCCCC2)cn1 [Example 225] | 2 nM |

Test system: COS Cell
Test: COS Cell IC50 (Cell-Based Assay)
Settings: range stated for the group
Procedure: FPT IC50 (inhibition of farnesyl protein transferase, in vitro enzyme assay) and COS Cell IC50 (Cell-Based Assay) were determined following the assay procedures described in WO 95/10516, published Apr. 20, 1995. GGPT IC50 (inhibition of geranylgeranyl protein transferase, in vitro enzyme assay), Cell Mat Assay, and anti-tumor activity (in vivo anti-tumor studies) could be determined by the assay procedures described in WO 95/10516. The disclosure of WO 95/10516 is incorporated herein by reference thereto.

| Structure (SMILES) | IC50 |
| --- | --- |
| CC(C)(C)NC(=O)N1CCN(C2c3ccc(Cl)cc3CCc3cc(Br)cnc32)C[C@@H]1C(=O)NCCCn1ccnc1N (stereo partly shown) [Example 103] | ≤ 35 nM |
| CC(C)(CCNC(=O)[C@H]1CN(C2c3ccc(Cl)cc3CCc3cc(Br)cnc32)CCN1C(=O)NC1CCCCC1)n1ccnc1 (stereo partly shown) [Example 1] | 10 to 920 nM |
| CC(C)(CCNC(=O)[C@H]1CN([C@H]2c3ccc(Cl)cc3CCc3cc(Br)cnc32)CCN1C(=O)CC1CCN(C(N)=O)CC1)n1ccnc1 [Example 8] | 10 to 920 nM |
| Cn1cncc1CCCNC(=O)[C@H]1CN(C2c3ccc(Cl)cc3CCc3cc(Br)cnc32)CCN1C(=O)NC1CCCCC1 (stereo partly shown) [Example 101] | ≤ 35 nM |
| NC(=O)[C@H](Cc1cnc[nH]1)NC(=O)[C@H]1CN(C2c3ccc(Cl)cc3CCc3cc(Br)cnc32)CCN1C(=O)NC1CCCCC1 (stereo partly shown) [Example 25] | 10 to 920 nM |
| Cc1cn(CCNC(=O)[C@H]2CN(C3c4ccc(Cl)cc4CCc4cc(Br)cnc43)CCN2C(=O)NC2CCCCC2)cn1 (stereo partly shown) [Example 259] | ≤ 35 nM |
